Results from the supplement of paper PMC4862054.
Values belong to the compound of their own block, whether it stands above or below them.

Key:
Details in all cases: 72 h
Hs578T [1] = system: Hs578T
In short: (§1)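 For viability and cell death testing, 384-well plates carried compound at 5 concentrations in 10-fold steps over a compound-specific 10,000-fold range, and breast cancer cell lines were seeded in 20 µl suspension. After 72 h incubation, cell death was read by CellTox Green fluorescence (485/520 nm) before viability was read by CellTiter-Glo luminescence. EC50 was fitted from the dose-response curves and censored at the top concentration. Normalisation on each plate was to 0.1 % DMSO and a positive kill control.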

BT-474 [2] = system: BT-474
In short: as §1

MDA-MB-231 [3] = system: MDA-MB-231
In short: as §1

HCC1599 [4] = system: HCC1599
In short: as §1

CAL-85-1 [5] = system: CAL-85-1
In short: as §1

MCF-10A [6] = system: MCF-10A
In short: as §1

DU-4475 [7] = system: DU-4475
In short: as §1

MFM-223 [8] = system: MFM-223
In short: as §1

HCC1937 [9] = system: HCC1937
In short: as §1

MDA-MB-453 [10] = system: MDA-MB-453
In short: as §1

BT-474 [11] = system: BT-474; remark: listed apart in the source
In short: (§2)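 Breast cancer cell lines in 20 µl suspension were seeded onto 384-well plates that already held compound dissolved in 5 µl medium and were incubated for 72 h. Viability was measured by adding 2.5 µl CellTiter-Blue for 2 h at 37 °C and reading fluorescence at 560/590 nm. Each plate was normalised to vehicle and a positive kill control and checked by Z'-factor. EC50 was taken from a fitted percent-inhibition dose-response curve, censored at the highest concentration, and rows with a drug sensitivity score of zero were removed.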

MDA-MB-231 [12] = system: MDA-MB-231; remark: listed apart in the source
In short: as §2

MDA-MB-468 [13] = system: MDA-MB-468
In short: as §2

CAL-120 [14] = system: CAL-120
In short: as §2

BT-549 [15] = system: BT-549
In short: as §2

MFM-223 [16] = system: MFM-223; remark: listed apart in the source
In short: as §2

HCC1937 [17] = system: HCC1937; remark: listed apart in the source
In short: as §2

MDA-MB-436 [18] = system: MDA-MB-436
In short: as §2

CAL-85-1 [19] = system: CAL-85-1; remark: listed apart in the source
In short: as §2

HDQ-P1 [20] = system: HDQ-P1
In short: as §2

DU-4475 [21] = system: DU-4475; remark: listed apart in the source
In short: as §2

MDA-MB-453 [22] = system: MDA-MB-453; remark: listed apart in the source
In short: as §2

Hs578T [23] = system: Hs578T; remark: listed apart in the source
In short: as §1

BT-474 [24] = system: BT-474; remark: listed apart in the source
In short: as §1

MDA-MB-231 [25] = system: MDA-MB-231; remark: listed apart in the source
In short: as §1

HCC1599 [26] = system: HCC1599; remark: listed apart in the source
In short: as §1

SK-BR-3 = system: SK-BR-3
In short: as §1

CAL-85-1 [27] = system: CAL-85-1; remark: listed apart in the source
In short: as §1

BT-549 [28] = system: BT-549; remark: listed apart in the source
In short: as §1

MCF-10A [29] = system: MCF-10A; remark: listed apart in the source
In short: as §1

DU-4475 [30] = system: DU-4475; remark: listed apart in the source
In short: as §1

MFM-223 [31] = system: MFM-223; remark: listed apart in the source
In short: as §1

HCC1937 [32] = system: HCC1937; remark: listed apart in the source
In short: as §1

MDA-MB-453 [33] = system: MDA-MB-453; remark: listed apart in the source
In short: as §1

HCC1143 [34] = system: HCC1143
In short: as §1

CAL-148 [35] = system: CAL-148
In short: as §1

MDA-MB-468 [36] = system: MDA-MB-468; remark: listed apart in the source
In short: as §1

CAL-120 [37] = system: CAL-120; remark: listed apart in the source
In short: as §1

BT-549 [38] = system: BT-549; remark: listed apart in the source
In short: as §1

HDQ-P1 [39] = system: HDQ-P1; remark: listed apart in the source
In short: as §1

MDA-MB-436 [40] = system: MDA-MB-436; remark: listed apart in the source
In short: as §1

Hs578T [41] = system: Hs578T; remark: listed apart in the source
In short: as §2

HCC1143 [42] = system: HCC1143; remark: listed apart in the source
In short: as §1

CAL-148 [43] = system: CAL-148; remark: listed apart in the source
In short: as §1

MDA-MB-468 [44] = system: MDA-MB-468; remark: listed apart in the source
In short: as §1

CAL-120 [45] = system: CAL-120; remark: listed apart in the source
In short: as §1

CAL-51 = system: CAL-51
In short: as §1

HDQ-P1 [46] = system: HDQ-P1; remark: listed apart in the source
In short: as §1

MDA-MB-436 [47] = system: MDA-MB-436; remark: listed apart in the source
In short: as §1

EC50, CellTiter-Blue viability (BT-474 [11]): 5530 nM
EC50, CellTiter-Blue viability (MDA-MB-231 [12]): 2830 nM
EC50, CellTiter-Blue viability (MDA-MB-468 [13]): 3630 nM
EC50, CellTiter-Blue viability (BT-549 [15]): 3250 nM
EC50, CellTiter-Blue viability (HCC1937 [17]): 9530 nM
EC50, CellTiter-Blue viability (MDA-MB-436 [18]): 6850 nM
EC50, CellTiter-Blue viability (MDA-MB-453 [22]): 4990 nM
EC50, CellTiter-Glo (BT-474 [24]): 3940 nM
EC50, CellTiter-Glo (MDA-MB-231 [25]): 3540 nM
EC50, CellTiter-Glo (HCC1599 [26]): 2830 nM
EC50, CellTiter-Glo (SK-BR-3): 6000 nM
EC50, CellTiter-Glo (BT-549 [28]): 1980 nM
EC50, CellTiter-Glo (HCC1937 [32]): 2900 nM
EC50, CellTiter-Glo (MDA-MB-453 [33]): 2910 nM
Structure (SMILES): CCN(CC)CCOc1ccc(C(=C(Cl)c2ccccc2)c2ccccc2)cc1 [Clomifene]
EC50, CellTox Green (Hs578T [1]): 2260 nM
EC50, CellTox Green (BT-474 [2]): 3470 nM
EC50, CellTox Green (MDA-MB-231 [3]): 1990 nM
EC50, CellTox Green (HCC1599 [4]): 9780 nM
EC50, CellTox Green (CAL-85-1 [5]): 6280 nM
EC50, CellTox Green (MCF-10A [6]): 1010 nM
EC50, CellTox Green (DU-4475 [7]): 5820 nM
EC50, CellTox Green (MFM-223 [8]): 522 nM
EC50, CellTox Green (HCC1937 [9]): 1760 nM
EC50, CellTox Green (MDA-MB-453 [10]): 5670 nM
EC50, CellTiter-Blue viability (CAL-120 [14]): 4600 nM
EC50, CellTiter-Blue viability (MFM-223 [16]): 6930 nM
EC50, CellTiter-Blue viability (CAL-85-1 [19]): 9270 nM
EC50, CellTiter-Blue viability (HDQ-P1 [20]): 9480 nM
EC50, CellTiter-Blue viability (DU-4475 [21]): 7320 nM
EC50, CellTiter-Glo (Hs578T [23]): 2760 nM
EC50, CellTiter-Glo (CAL-85-1 [27]): 2390 nM
EC50, CellTiter-Glo (MCF-10A [29]): 9400 nM
EC50, CellTiter-Glo (DU-4475 [30]): 3460 nM
EC50, CellTiter-Glo (MFM-223 [31]): 6660 nM

Structure (SMILES): N[C@@H](Cc1ccc(N(CCCl)CCCl)cc1)C(=O)O [Melphalan]
EC50, CellTox Green (HCC1143 [34]): 2910 nM
EC50, CellTox Green (CAL-148 [35]): 354 nM
EC50, CellTox Green (Hs578T [1]): 1110 nM
EC50, CellTox Green (BT-474 [2]): 347 nM
EC50, CellTox Green (MDA-MB-231 [3]): 129 nM
EC50, CellTox Green (MDA-MB-468 [36]): 293 nM
EC50, CellTox Green (CAL-120 [37]): 1790 nM
EC50, CellTox Green (HCC1599 [4]): 726 nM
EC50, CellTox Green (CAL-85-1 [5]): 392 nM
EC50, CellTox Green (BT-549 [38]): 778 nM
EC50, CellTox Green (HDQ-P1 [39]): 363 nM
EC50, CellTox Green (MCF-10A [6]): 275 nM
EC50, CellTox Green (DU-4475 [7]): 1290 nM
EC50, CellTox Green (MFM-223 [8]): 514 nM
EC50, CellTox Green (HCC1937 [9]): 613 nM
EC50, CellTox Green (MDA-MB-436 [40]): 2300 nM
EC50, CellTox Green (MDA-MB-453 [10]): 419 nM
EC50, CellTiter-Blue viability (Hs578T [41]): 222 nM
EC50, CellTiter-Blue viability (HCC1937 [17]): 85.5 nM
EC50, CellTiter-Glo (HCC1143 [42]): 739 nM
EC50, CellTiter-Glo (CAL-148 [43]): 268 nM
EC50, CellTiter-Glo (Hs578T [23]): 518 nM
EC50, CellTiter-Glo (BT-474 [24]): 313 nM
EC50, CellTiter-Glo (MDA-MB-231 [25]): 237 nM
EC50, CellTiter-Glo (MDA-MB-468 [44]): 203 nM
EC50, CellTiter-Glo (CAL-120 [45]): 1220 nM
EC50, CellTiter-Glo (HCC1599 [26]): 467 nM
EC50, CellTiter-Glo (SK-BR-3): 247 nM
EC50, CellTiter-Glo (CAL-51): 182 nM
EC50, CellTiter-Glo (CAL-85-1 [27]): 444 nM
EC50, CellTiter-Glo (BT-549 [28]): 758 nM
EC50, CellTiter-Glo (HDQ-P1 [46]): 297 nM
EC50, CellTiter-Glo (MCF-10A [29]): 424 nM
EC50, CellTiter-Glo (DU-4475 [30]): 322 nM
EC50, CellTiter-Glo (MFM-223 [31]): 310 nM
EC50, CellTiter-Glo (HCC1937 [32]): 235 nM
EC50, CellTiter-Glo (MDA-MB-436 [47]): 501 nM
EC50, CellTiter-Glo (MDA-MB-453 [33]): 213 nM
